Laboratory results taken from PubChem BioAssay (NCI).
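Where inhibition never reached the appropriate level, the endpoint shown equals the highest concentration tested. Otherwise, values were interpolated linearly from a five-concentration, 48-hour dose response in 96-well plates. TGI is the concentration that stops growth completely.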

Key:
Experiment in all cases: DTP human tumour cell line panel, 48 h
[1] = test system: SNB-75 CNS
[2] = test system: SN12C renal
[3] = test system: KM12 colon
[4] = test system: NCI-H226 lung
[5] = test system: 786-0 renal
[6] = test system: HCC-2998 colon
[7] = test system: CCRF-CEM leukemia
[8] = test system: SF-268 CNS
[9] = test system: HOP-92 NSCLC
[10] = test system: HCT-15 colon
[11] = test system: BT-549 breast
[12] = test system: NCI-H460 lung
[13] = test system: MALME-3M melanoma
[14] = test system: EKVX NSCLC
[15] = test system: IGROV1 ovarian
[16] = test system: SK-MEL-2 melanoma
[17] = test system: HL-60(TB) leukemia
[18] = test system: TK-10 renal

| Structure (SMILES) | TGI [1] [µM] | TGI [2] [µM] | TGI [3] [µM] | TGI [4] [µM] | TGI [5] [µM] | TGI [6] [µM] | TGI [7] [µM] | TGI [8] [µM] | TGI [9] [µM] | TGI [10] [µM] | TGI [11] [µM] | TGI [12] [µM] | TGI [13] [µM] | TGI [14] [µM] | TGI [15] [µM] | TGI [16] [µM] | TGI [17] [µM] | TGI [18] [µM] |
| --- | --- | --- | --- | --- | --- | --- | --- | --- | --- | --- | --- | --- | --- | --- | --- | --- | --- | --- |
| Cc1cc(C#N)c(Nc2c(C)cccc2[N+](=O)[O-])s1 | 72.2 | > 100 | > 100 | > 100 | 89.9 | > 100 | 55 | 84.9 | 68.3 | > 100 | 80.6 | > 100 | 89.3 | > 100 | – | – | – | – |
| CC1(C)C2CCC1(CC(=O)O)C(Cl)C2 (stereo unspecified) | > 100 | > 100 | > 100 | > 100 | > 100 | > 100 | > 100 | > 100 | – | > 100 | > 100 | > 100 | > 100 | > 100 | > 100 | > 100 | > 100 | > 100 |
| CN1CCN(c2ccc(-n3cc(C(=O)O)c(=O)c4cc(F)c(N5CCN(C)CC5)cc43)nc2)CC1 | > 100 | > 100 | > 100 | > 100 | > 100 | – | > 100 | > 100 | > 100 | > 100 | > 100 | > 100 | > 100 | > 100 | > 100 | – | > 100 | > 100 |
| CCN(CC)c1nc(N(C)C)c2cc(OC)ccc2n1 | – | 89.3 | > 100 | 60.1 | 86.2 | 46.4 | – | 91.8 | > 100 | > 100 | > 100 | > 100 | 62 | > 100 | > 100 | > 100 | 67 | > 100 |
| CC[C@@]1(O)C(=O)OCc2c1cc1n(c2=O)Cc2c-1nc1ccccc1c2/C=N\NC(=O)C(C)N (stereo partly specified) | 4.33 | 11.1 | > 100 | 2.43 | 2 | > 21.1 | – | > 100 | 7.7 | > 100 | > 22.4 | 4.47 | > 91.9 | > 100 | > 100 | > 100 | > 100 | > 100 |
| N#CC(c1cc(Cl)ncn1)c1nc2ccccc2s1 (stereo unspecified) | 28.1 | 7.49 | > 100 | > 100 | 29.5 | – | – | 18.3 | 11.1 | 15.6 | 15.2 | > 100 | 24.6 | 58.1 | 22 | – | – | > 100 |
| C[C@@H]1OC(=O)/C(=C\N(C)C)[C@H]2CC(=O)N(CCc3cn(S(=O)(=O)C(F)(F)F)c4ccccc34)C[C@H]12 | > 100 | > 100 | > 100 | > 100 | > 100 | > 100 | – | > 100 | > 100 | > 100 | > 100 | > 100 | > 100 | > 100 | > 100 | > 100 | – | > 100 |
| COc1cc(OC)nc(Nc2c(C#N)c3nc4ccccc4n3c3ccccc23)n1 | 37.6 | – | > 100 | > 100 | 43.6 | > 100 | > 100 | > 100 | – | > 100 | 63 | > 100 | – | > 100 | > 100 | 71.1 | > 100 | 74.2 |
| COC1(C)C=NCC(C)(C)NC(=O)C(C)(OC)C=NCC(C)(C)NC1=O (stereo unspecified) | > 10 | > 10 | > 10 | – | > 10 | > 10 | > 10 | > 10 | > 10 | > 10 | > 10 | – | > 10 | > 10 | > 10 | – | > 10 | > 10 |
| Cc1n[nH]c(=O)n1N1C(=O)c2ccccc2C1=O | > 100 | > 100 | > 100 | > 100 | > 100 | > 100 | > 100 | – | > 100 | > 100 | > 100 | > 100 | > 100 | > 100 | > 100 | > 100 | – | > 100 |
| CCCCOC(=O)C1CN2C(=NC1(C(F)(F)F)C(F)(F)F)Sc1ccccc12 (stereo unspecified) | > 100 | > 100 | > 100 | > 100 | > 100 | – | > 100 | > 100 | > 100 | > 100 | > 100 | > 100 | > 100 | > 100 | > 100 | > 100 | 68.9 | > 100 |
| CCNCCNC(=O)c1ccc(Br)cc1 | > 100 | > 100 | > 100 | > 100 | > 100 | > 100 | > 100 | > 100 | > 100 | > 100 | > 100 | > 100 | – | > 100 | > 100 | – | > 100 | > 100 |
| CCCCCCCCCCCCP(=O)(O)OCC(N)C(=O)O (stereo unspecified) | 40.3 | 42.4 | – | > 100 | > 100 | > 100 | – | > 100 | 71.6 | 41.3 | > 100 | 89.6 | > 100 | > 100 | > 100 | 91.9 | 36.1 | > 100 |
| C[C@]12CCC(=O)C=C1CC[C@@H]1C2CC[C@]2(C)Nc3c(ncn3-c3ccc(F)cc3)CC12 (stereo partly specified) | 77.4 | > 100 | 85.9 | > 100 | > 100 | 88.8 | 82.6 | > 100 | > 100 | – | 59.8 | 57.4 | 70.4 | > 100 | > 100 | – | > 100 | > 100 |
